Measured values published in patent US20110046147A1, “17BETA-HYDROXYSTEROID DEHYDROGENASE TYPE 1 INHIBITORS FOR THE TREATMENT OF HORMONE-RELATED DISEASES” (UNIVERSITAT DES SAARLANDES, priority 2007, published 2011).

Columns and labels:
in vitro = conditions: rat, microsomes, pH 7.4
Experimental: The reaction is started by adding 20 μl of the compound to be tested in 20% AcCN to the microsome/buffer mixture preincubated at 37° C. After 0, 15, 30 and 60 minutes, 200 μl of sample solution is withdrawn and subjected to AcCN precipitation. The isolation of the compounds is effected by adding 200 μl of AcCN that contains the internal standard (1 μM) to 200 μl of sample solution and calibration standard. After shaking for 10 s and centrifugation at 4000 g, an aliquot of the supernatant is subjected to LC-MS/MS. Two controls are included: a positive control with 7-ethoxycoumarin as a reference to verify the microsomal enzyme activity, and a negative control in which microsomes are used that were heated for 25 minutes without a regenerating system, in order to ensure that the loss of substance is actually due to metabolization.
The amount of compound in a sample is expressed as the percent fraction of the compound remaining as compared to time t=0 (100%). The percent fraction is plotted versus time.

CYP1A2 = target: T1, CYP1A2 (Homo sapiens, UniProt P05177); experiment: Inhibition of hepatic CYP enzymes: CYP1A2; format: biochemical; conditions: read-out: CYP1A2 IC50 (mean ± SD)
T1 construct: purchased Becton Dickinson GmbH (Heidelberg)
T1 sequence (P05177 1-516): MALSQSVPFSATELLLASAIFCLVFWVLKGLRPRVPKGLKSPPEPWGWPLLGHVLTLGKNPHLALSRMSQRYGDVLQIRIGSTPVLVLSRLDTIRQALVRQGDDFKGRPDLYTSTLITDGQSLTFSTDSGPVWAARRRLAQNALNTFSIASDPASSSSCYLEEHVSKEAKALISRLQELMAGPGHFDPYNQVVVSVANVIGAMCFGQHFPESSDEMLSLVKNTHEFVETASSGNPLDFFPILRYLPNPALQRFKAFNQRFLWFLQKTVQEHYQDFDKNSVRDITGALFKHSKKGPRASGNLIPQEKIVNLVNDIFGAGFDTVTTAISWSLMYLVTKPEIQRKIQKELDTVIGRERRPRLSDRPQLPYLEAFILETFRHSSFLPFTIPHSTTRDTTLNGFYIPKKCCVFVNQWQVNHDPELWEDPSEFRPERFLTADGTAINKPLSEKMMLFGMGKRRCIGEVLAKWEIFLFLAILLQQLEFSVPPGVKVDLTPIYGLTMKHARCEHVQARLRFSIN
Excerpt: (§1) Drug interactions (inhibition of hepatic CYP enzymes): The inhibition of six human hepatic cytochrome P450 enzymes by selected compounds was examined by means of the kit supplied by Becton Dickinson GmbH (Heidelberg).

CYP3A4 = target: T2, CYP3A4 (Homo sapiens, UniProt P08684); experiment: Inhibition of hepatic CYP enzymes: CYP3A4; format: biochemical; conditions: read-out: CYP3A4 IC50 (mean ± SD)
T2 construct: purchased Becton Dickinson GmbH (Heidelberg)
Excerpt: as §1

CYP2B6 = target: T3, CYP2B6 (Homo sapiens, UniProt P20813); experiment: Inhibition of hepatic CYP enzymes: CYP2B6; format: biochemical; conditions: read-out: CYP2B6 IC50 (mean ± SD)
T3 construct: purchased Becton Dickinson GmbH (Heidelberg)
T3 sequence (P20813 1-491): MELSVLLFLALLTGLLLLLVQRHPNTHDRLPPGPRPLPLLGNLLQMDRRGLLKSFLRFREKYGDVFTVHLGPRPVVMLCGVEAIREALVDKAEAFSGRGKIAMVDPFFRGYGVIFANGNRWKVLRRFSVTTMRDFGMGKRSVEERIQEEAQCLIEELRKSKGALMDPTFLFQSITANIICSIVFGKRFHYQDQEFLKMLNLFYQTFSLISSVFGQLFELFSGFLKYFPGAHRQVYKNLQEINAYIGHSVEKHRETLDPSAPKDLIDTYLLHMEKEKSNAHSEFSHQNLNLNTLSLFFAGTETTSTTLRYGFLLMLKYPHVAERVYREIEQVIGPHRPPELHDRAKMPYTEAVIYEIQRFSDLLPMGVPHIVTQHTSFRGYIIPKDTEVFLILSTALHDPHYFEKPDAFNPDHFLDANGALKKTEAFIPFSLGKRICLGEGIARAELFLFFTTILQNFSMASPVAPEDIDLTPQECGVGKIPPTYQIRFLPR
Excerpt: as §1

17β-HSD1 = target: T4, 17β-HSD1 (Homo sapiens, UniProt P14061); experiment: Inhibition of 17β-HSD1 (estrone to estradiol, radio-HPLC); format: biochemical; conditions: for IC50: human placenta enzyme, 500 nM estrone, NADH 500 μM; for Selectivity IC50 (17β-HSD2)/IC50 (17β-HSD1): ratio of IC50 values
T4 construct: In both cases, human placenta served as the enzyme source; from tissue; host or cells: human placenta
T4 sequence (P14061 1-328): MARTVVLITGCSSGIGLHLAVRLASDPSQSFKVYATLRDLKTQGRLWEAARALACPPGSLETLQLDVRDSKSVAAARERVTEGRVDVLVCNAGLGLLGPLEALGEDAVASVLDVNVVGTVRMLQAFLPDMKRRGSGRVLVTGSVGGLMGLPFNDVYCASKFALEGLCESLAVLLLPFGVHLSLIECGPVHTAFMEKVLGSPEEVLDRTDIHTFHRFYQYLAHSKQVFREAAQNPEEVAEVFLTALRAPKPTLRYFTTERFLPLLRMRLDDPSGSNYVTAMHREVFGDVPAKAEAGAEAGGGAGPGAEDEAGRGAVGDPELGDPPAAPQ

T2 sequence (P08684 whole entry): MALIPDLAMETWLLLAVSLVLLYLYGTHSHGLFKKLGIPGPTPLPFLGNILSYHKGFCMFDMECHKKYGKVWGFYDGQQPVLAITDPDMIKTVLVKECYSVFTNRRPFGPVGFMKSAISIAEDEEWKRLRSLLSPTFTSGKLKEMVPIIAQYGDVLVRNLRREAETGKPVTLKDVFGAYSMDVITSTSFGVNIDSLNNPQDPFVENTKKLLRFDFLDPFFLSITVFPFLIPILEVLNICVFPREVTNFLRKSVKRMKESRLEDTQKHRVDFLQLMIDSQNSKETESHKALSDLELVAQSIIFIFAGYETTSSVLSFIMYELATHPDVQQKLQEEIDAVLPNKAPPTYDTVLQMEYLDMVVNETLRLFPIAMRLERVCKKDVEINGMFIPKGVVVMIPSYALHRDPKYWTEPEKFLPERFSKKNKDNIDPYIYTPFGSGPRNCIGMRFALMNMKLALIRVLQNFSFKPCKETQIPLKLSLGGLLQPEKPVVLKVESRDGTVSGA

| Half life (in vitro) | IC50 (CYP1A2) | IC50 (CYP3A4) | IC50 (CYP2B6) | IC50 (17β-HSD1) | Selectivity IC50 (17β-HSD2)/IC50 (17β-HSD1) (17β-HSD1) | half-life (in vitro) | SMILES |
| --- | --- | --- | --- | --- | --- | --- | --- |
| 22.7 min | 17.2 ± 1.16 µM | 2.13 ± 0.13 µM | 7.68 ± 0.92 µM | 0.11 µM | 21 | – | Oc1cccc(-c2ccc(-c3cccc(O)c3)cc2)c1 [Compound 42, [1,1′,4′,1″]Terphenyl-3,3′-diol] |
| – | 5.35 ± 0.24 µM | 7.36 ± 0.49 µM | 18.8 ± 2.05 µM | 3.4 µM | 0.5 | 10.6 min | Oc1ccc(-c2ccsc2-c2cccc(O)c2)cc1 [Compound 28, 3-[3-(4-Hydroxyphenyl)-2-thienyl]phenol] |
